According to patent US6593342B1, “Pharmaceutical compositions comprising 2-quinolones” (Laboratoire L. Lafon, priority 1998, dated 2003):

Experiments:
Type in all cases: cell-based
colorectal line HT-29 = assay: Clonogenic test (soft agar colony growth), HT-29; details: 21 days, control = 100%, mean ± SEM
Description: 1—Interaction (Stimulation or Inhibition of Proliferation) With the Generation of Clonogenic Cells (Clonogenic Test)
The test used is that described by Hamburger et al. (Science, 1977; 197, 461-463) and Salmon et al. (New England J. Med., 298, 1321-1327). A cell is considered clonogenic if it has the capacity to proliferate and to give rise to a cell colony. “Human tumor stem cells” are the cells which are the source of the neoplastic cells which constitute a given tumor. These tumor stem cells are responsible for the relapse processes which may be observed after surgical resection of primary tumors and are also responsible for the formation of metastases. In a tumor or a tumor cell line, these clonogenic stem cells differ from the other cells of the tumor or from the neoplastic cell line under consideration in that they conserve their capacity to proliferate in the absence of any solid support.
In this test, the tumor cells are cultured on a semi-solid support consisting of agar. […] In a tumor cell population, cultured on such a support, it is these clonogenic cells (associated with an unlimited number of cell divisions and whose proliferation is referred to by M. I. Dawson as “anchorage-independent [clonal] growth”) which are capable of growing. The percentage of these clonogenic cells in a tumor or a cell line ranges between 0.1% and 0.001%.
The influence of the compounds of formulae (I) and (Ia) on the growth of the cell colonies obtained by culturing, for example, the mammalian tumor lines MCF7 and MXT and the colorectal line HT-29 on the semi-liquid culture medium known as “soft agar” was measured. On such a medium, only the clonogenic cells referred to by M. I. Dawson as “anchorage-independent (clonal) cells” survive and grow. The growth of these cells in such a “non-adherent” mode bears witness to their degree of tumorigenicity. The inhibition of the growth of the size of a tumor in which a larger number of clonogenic cells has developed then becomes the evidence of reinforced cytotoxic activity.
Conversely, this test can also reveal that a compound is capable of inhibiting the generation/proliferation of clonogenic cells, thus making the tumor less able to grow and thus reducing the population of tumor cells.
The tumor cell lines studied are maintained in culture in 25 cm^2 falcon dishes. They are then trypsinized and the cells are fully dissociated from each other. The percentage of live cells is determined after staining with trypan blue. A cell suspension at a concentration of from 5·10^4 to 15·10^4 cells/ml (depending on the cell type under consideration) is prepared in a 0.3% agar solution. Next, 200 μl of this suspension are inoculated in Petri dishes 35 mm in diameter, in which are placed 3 ml of a base layer consisting of a 0.5% agar solution. The 200 μl of cell suspension are in turn covered with 1.8 ml of an upper layer consisting of a 0.3% agar solution. The dishes are then placed in an incubator at 37° C., 5% CO2 and 70% humidity until the treatment. This treatment is carried out about 1 to 2 hours after the inoculation. The test compounds are prepared at a concentration 100 times greater than the desired concentration and 50 μl of these treating solutions are placed over the upper layer of agar in the corresponding dishes. In the present study, the final concentration of the test products is 10^−5, 10^−7 and 10^−9 M. The dishes are then kept in an incubator for 21 days. On the 21st day the dishes are treated by depositing on the upper layer 100 μl of a 1 mg/ml solution of MTT (3-(4,5-dimethylthiazol-2-yl)-2,5-diphenyltetrazolinium bromide prepared with RPMI 1640 medium) for 3 h at 37° C. After this period, the cell colonies are fixed by adding 2 ml of formalin per dish. After fixing for 24 hours, the formalin is evaporated off and the number of stained cell colonies, thus consisting of metabolically active cells, and whose surface area is greater than 100 μm^2, is determined using an inverted microscope. […]

J82 = assay: MTT test, J82; details: Homo sapiens, 10^−5 M, 72 hours, control = 100%, mean ± SEM, read-out: average optical density (MTT), percentage relative to control
Outline: (§1)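 Human bladder cancer cells grown in MEM/HEPES with 5% FCS were exposed for 72 h at 37 °C to compounds at 10^−5 to 10^−10 M, then to 1 mg/ml MTT for 3 h. Formazan dissolved in DMSO was read at 570 nm against 630 nm and expressed as % of solvent-control optical density.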

T24 = assay: MTT test, T24; details: Homo sapiens, T-24, 10^−5 M, 72 hours, control = 100%, mean ± SEM, read-out: average optical density (MTT), percentage relative to control
Outline: as §1

SMILES	average number of clones of clonogenic cells, percentage relative to control (colorectal line HT-29; 10^−5 M) [%]	average number of clones of clonogenic cells, percentage relative to control (colorectal line HT-29; 10^−7 M) [%]	average number of clones of clonogenic cells, percentage relative to control (colorectal line HT-29; 10^−9 M) [%]	viability at 10 µM (J82) [%]	viability at 10 µM (T24) [%]
COc1ccc(-c2cc3c(OC)cc(OC)cc3[nH]c2=O)cc1 [CRL8246, 5,7-Dimethoxy-3-(4-methoxyphenyl)-1,2-dihydro-2-quinolinone]	70.9 ± 2.8	103.3 ± 3.6	104 ± 2.7	87.6 ± 2.2	109 ± 3.5
COc1ccc(-c2cc3c(OC)cc(OC)cc3n(CCC#N)c2=O)cc1 [CRL8247, 3-[5,7-Dimethoxy-3-(4-methoxyphenyl)-2-oxo-1,2-dihydro-1-quinolinyl]propanenitrile]	72.7 ± 3.6	98.3 ± 4.9	104.5 ± 2.7	55 ± 2.3	77.8 ± 2.7
COc1ccc(-c2cc3c(OC)cc(OC)cc3n(CCc3nnn[nH]3)c2=O)cc1 [CRL8256, 1-[2-(1H-1,2,3,4-Tetrazol-5-yl)ethyl]-5,7-dimethoxy-3-(4-methoxyphenyl)-1,2-dihydro-2-quinolinone]	97.1 ± 4.3	100.5 ± 4.1	107.5 ± 3.7	77.8 ± 0.8	78.2 ± 2.6
CCN(CC)C(=O)CCn1c(=O)c(-c2ccc(OC)cc2)cc2c(OC)cc(OC)cc21 [CRL8283, N,N-Diethyl-3-[5,7-dimethoxy-3-(4-methoxy-phenyl)-2-oxo-1,2-dihydro-1-quinolinyl]propanamide]	88.9 ± 0.2	90.9 ± 3.1	106.1 ± 1.4	71.6 ± 2.2	72.9 ± 0.9
CCN(CC)C(=O)Cn1c(=O)c(-c2ccc(OC)cc2)cc2c(OC)cc(OC)cc21 [CRL8315, N,N-Diethyl-2-[5,7-dimethoxy-3-(4-methoxy-phenyl)-2-oxo-1,2-dihydro-1-quinolinyl]acetamide]	103.5 ± 4.5	111.9 ± 5.4	112.9 ± 2.4	65.9 ± 1.3	89.6 ± 2.1
COc1ccc(-c2cc3c(OC)cc(OC)cc3n(CCN(C)C)c2=O)cc1 [CRL8316, 1-[2-(Dimethylamino)ethyl]-5,7-dimethoxy-3-(4-methoxyphenyl)-1,2-dihydro-2-quinolinone]	50.6 ± 1.8	80.1 ± 2.9	101.6 ± 3.2	26.9 ± 0.9	94 ± 3.2
